Patent US5637619A, “Antitumor 2-aminocarbonyl-1, 2-bis(methylsulfonyl)-1-(substituted)hydrazines” (Yale University, priority 1995, dated 1997)
“And” between values parts separate entries of the source, which are not always exact repeats. Equal values may be shown once.

What was measured:
[1] = tested on: LX-1 human lung carcinoma; test: LX-1 human lung carcinoma xenograft, sc in athymic mice; format: in vivo, human tumor in athymic (nu/nu) mice; conditions: 40 mg/kg/injection, q2d × 5 from day 6, iv, 100% DMSO
Description: (§1) The M5076 reticulum cell sarcoma was passaged biweekly by sc transfer of tumor fragments into C57BL/6 mice, and the M109 lung carcinoma was similarly passaged in BALB/c mice. The LX-1 human lung carcinoma was passaged sc every two to three weeks in BALB/c-background athymic (nu/nu) mice. For use in these systems, compound III was dissolved in: (a) 100% DMSO and administered by iv injection in a fixed volume of 10 microliters; or (b) DMSO diluted with saline to a final concentration of 10% DMSO and administered iv in a volume of 0.01 milliliter/g of body weight. […] Mitomycin C and cyclophosphamide were dissolved and administered in saline. BCNU and MeCCNU were dissolved in ethanol and diluted 1:9 (v/v) with water prior to administration.
(§2) Five mice per group were employed in experiments with the B16F10 melanoma, and 8 mice per group with the M5076 sarcoma, the M109 carcinoma and the LX-1 carcinoma. A minimum of two dose levels per compound were included in each evaluation and drug therapy was initiated 24 h after tumor implantation for the M5076 sarcoma and M109 carcinoma. In the LX-1 experiment, tumor bearing mice were selected and sorted into treatment and control groups on day 6 post-tumor implant such that all tumor weights ranged from 50-100 mg and median tumor weights per group were reasonably similar. Therapeutic results are presented in terms of: (a) increases in lifespan reflected by the relative median survival time (MST) of treated versus control groups (i.e., %T/C values), and by long-term survivors, and (b) primary tumor growth inhibition (i.e., T-C values) determined by calculating the relative median times for treated (T) and control untreated (C) mice to grow tumors of a 0.5 g size for the LX-1 carcinoma or a 1 g size for the murine neoplasms. Tumor weights were interchangeable with tumor size on the basis of 1 mm^3 =1 mg. […] The activity criterion for tumor inhibition was a delay in tumor growth consistent with one log10 cell kill (LCK). The absolute T-C value needed to attain this level of efficacy varied from experiment to experiment and depended upon the tumor volume doubling time of the control mice in each study. Treated mice dying prior to day 10 in the ip M109 experiment, or dying before their tumors achieved 0.5 g for the LX-1 carcinoma or 1 g in size for all other sc tumor models, were considered to have died from drug toxicity. Groups of mice with more than one death due to drug toxicity were not used in the evaluation of antitumor efficacy. Statistical evaluations of data were performed using Gehan's generalized Wilcoxan test (Gehan, Biometrika, 1965, 52, 203-233).
The human lung tumor, LX-1, xenografted sc in athymic mice, was also used to examine the antineoplastic potential of compound III. […]

[2] = tested on: M5076 reticulum cell sarcoma; test: M5076 reticulum cell sarcoma, sc implanted; format: in vivo, C57BL/6 mice; conditions: 48 mg/kg/injection, q2d × 5, iv, 100% DMSO
Description: as §1, §2
Compound III was also evaluated against the M5076 reticulum cell sarcoma implanted sc. When administered iv at a level of 48 mg/kg per injection in 100% DMSO every other day for five days, compound III cured 6 out of 8 mice and consequently, no median time (T-C value) to reach 1 gram size tumors was expressed for this group. Tumor growth in mice receiving only 100% DMSO was indistinguishable from that of untreated control animals. 1-(2-Chloroethyl)-3-(4-methylcyclohexyl)-1-nitrosourea (MeCCNU) and BCNU were included in this experiment for comparison. The former achieved a maximum %T/C of 128 and a delay in tumor growth of 33.5 days at 16 mg/kg per injection administered iv every fourth day for three total injections, while BCNU, administered iv on the same treatment schedule, produced a %T/C in excess of 157, with 2 out of 8 cures, and a T-C of >62 days (data not shown).

[3] = tested on: several more stringent distal site tumor models; test: Comparison with clinically active alkylating agents in several distal site tumor models; format: in vivo, mice; conditions: qualitative summary
Description: B16F10 melanoma cells were grown in vitro as monolayers in minimum essential medium with Hank's salts supplemented with 10% fetal bovine serum and 1% 200 mM L-glutamine solution. Solid tumors were produced in C57BL/6 female mice 12- to 14-weeks of age by the intradermal injection in the right flank of each mouse of 0.1 mL of a cell suspension containing 10^6 B16F10 cells/mL from freshly trypsinized cultures. After 10-12 days, animals bearing approximately 100 mm^3 tumors were treated ip with compound III or IV dissolved in 100% DMSO for 6 consecutive days, and tumor volumes were measured on alternate days until reaching 1000 mm^3. […]
(§3) Five mice per group were employed in experiments with the B16F10 melanoma, and 8 mice per group with the M5076 sarcoma, the M109 carcinoma and the LX-1 carcinoma. […] Therapeutic results are presented in terms of: (a) increases in lifespan reflected by the relative median survival time (MST) of treated versus control groups (i.e., %T/C values), and by long-term survivors, and (b) primary tumor growth inhibition (i.e., T-C values) determined by calculating the relative median times for treated (T) and control untreated (C) mice to grow tumors of a 0.5 g size for the LX-1 carcinoma or a 1 g size for the murine neoplasms. […]

[4] = tested on: M109 lung carcinoma; test: M109 lung carcinoma, ip implanted; format: in vivo, BALB/c mice; conditions: 50 mg/kg/injection, q4d × 3, ip, 10% DMSO in saline; highest dose tested
Description: as §1, §3

[5] = Body weight change / toxicity in L1210-bearing mice; format: in vivo, mice (CD2F1); conditions: for Av. Wt. Change %: L1210-bearing mice
Description: Leukemia L1210 cells were obtained from the Frederick Cancer Research Facility, Division of Cancer Treatment Tumor Repository of the National Cancer Institute, and were maintained by serial passage in tissue culture. Every 8 weeks, tumor cells were injected intraperitoneally into five donor CD2 F1 mice 8- to 10- weeks of age and were allowed to grow for 7 days. The peritoneal fluid was withdrawn and the suspension was centrifuged for 5 min at 1600 g. The supernatant was decanted and 10^5 cells/mL were seeded into 10 mL of RPMI 1640 medium supplemented with 10% fetal bovine serum and 1% L-glutamine, and once again maintained in culture. To assay for antineoplastic activity, 0.1 mL of the cell suspension containing 10^5 L1210 leukemia cells was injected ip into each recipient mouse. Test compounds were administered over a wide range of dosage levels, beginning 24 h after tumor implantation, and continued once daily for 6 consecutive days. All drugs were administered ip as a solution in 100% dimethylsulfoxide (DMSO), in a volume not exceeding 0.025 mL. […] Mice were weighed during the course of the experiments, and the percentage change in body weight from onset to termination of therapy was used as an indication of drug toxicity. Determination of the sensitivity of neoplasms to these agents was based upon the prolongation of survival time afforded by the drug treatments.
^a Administered ip once daily for six consecutive days, beginning 24 hours after tumor implantation, with 5-10 mice being used per group. ^b Average percent change in body weight from onset to termination of therapy. ^c % T/C=average survival time of treated/control mice×100; cures (>60-day survivors) are listed separately and are not included in this calculation.

## CS(=O)(=O)N(CCCl)N(C(=O)NCCCl)S(C)(=O)=O [Compound III, 1,2-bis(methylsulfonyl)-1-(2-chloroethyl)-2-(2-chloroethyl)aminocarbonylhydrazine]
[1]
  T-C, median delay in tumor growth to 0.5 g: 14.5 days
  log10 cell kill (LCK): 1.6 LCK
[2]
  %T/C (median survival time): > 157%
  Cures/Total: 6/8 and 6 out of 8
[3]
  antitumor activity versus clinical alkylating agents (in words): better than or equal to some of the best clinically active alkylating agents used for comparison
[4]
  %T/C (median survival time): 267%
[5]; 10 mg/kg ip once daily × 6
  Av. Wt. Change %: -4.7%
[5]; 15 mg/kg ip once daily × 6
  Av. Wt. Change %: -4.0%
[5]; 20 mg/kg ip once daily × 6
  Av. Wt. Change %: -10.4%
[5]; 20 mg/kg × 6
  loss in body weight: 10.4%
  toxicity (in words): somewhat toxic
